The values that follow come from article PMC5000588, “A Female-Biased Odorant Receptor from Apolygus lucorum (Meyer-Dür) Tuned to Some Plant Odors” (International Journal of Molecular Sciences, 2016).

For experiment [1], the target named is T1, AlucOR46/Orco (Apolygus lucorum, UniProt A0A1Q1NIJ3).
T1 construct: gene OR39; full-length ORF of AlucOR46 (1185 bp, 394 residues) in pT7Ts, cRNA co-injected with AlucOrco cRNA into Xenopus oocytes; OR/Orco heteromeric channel; with Odorant receptor coreceptor
T1 sequence (A0A1Q1NIJ3 1-394): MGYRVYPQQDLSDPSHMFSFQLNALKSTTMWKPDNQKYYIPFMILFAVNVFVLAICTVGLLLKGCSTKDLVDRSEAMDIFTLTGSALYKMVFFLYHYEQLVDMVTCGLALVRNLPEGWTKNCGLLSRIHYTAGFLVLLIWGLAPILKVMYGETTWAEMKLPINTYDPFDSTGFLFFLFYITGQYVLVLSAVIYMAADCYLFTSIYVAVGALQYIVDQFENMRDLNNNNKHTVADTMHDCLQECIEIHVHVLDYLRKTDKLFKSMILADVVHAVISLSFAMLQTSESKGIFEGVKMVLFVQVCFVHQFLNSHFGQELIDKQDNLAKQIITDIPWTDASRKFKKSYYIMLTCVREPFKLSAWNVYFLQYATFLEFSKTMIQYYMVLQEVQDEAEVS
T1 sequence (V9TQK7 1-471 partner): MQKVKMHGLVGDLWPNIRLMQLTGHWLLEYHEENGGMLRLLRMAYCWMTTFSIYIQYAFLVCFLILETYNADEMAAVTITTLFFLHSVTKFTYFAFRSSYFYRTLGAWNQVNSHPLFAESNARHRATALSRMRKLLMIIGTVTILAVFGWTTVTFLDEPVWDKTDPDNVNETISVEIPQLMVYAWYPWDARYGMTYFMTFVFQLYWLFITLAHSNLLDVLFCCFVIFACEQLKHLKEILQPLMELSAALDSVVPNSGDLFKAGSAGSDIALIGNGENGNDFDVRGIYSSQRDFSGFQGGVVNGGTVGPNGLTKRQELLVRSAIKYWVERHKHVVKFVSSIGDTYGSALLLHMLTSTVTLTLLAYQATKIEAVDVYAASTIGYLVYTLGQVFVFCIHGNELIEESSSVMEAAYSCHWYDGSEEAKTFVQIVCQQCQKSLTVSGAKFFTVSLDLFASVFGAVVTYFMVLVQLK
Briefly: two-electrode voltage clamp, Xenopus oocytes, inward current dose-response. It counts as cell-based. From the text:
two-electrode voltage clamp, Xenopus oocytes, inward current dose-response on AlucOR46/Orco
In general terms: In two-electrode clamp one electrode senses voltage and the other passes current.

Experiment [2] concerns the target T1, AlucOR46/Orco. Briefly: two-electrode voltage clamp, Xenopus oocytes, inward current at a single concentration. It counts as cell-based. To be noted: agonist; 10^−4 M odorant; coexpressed with AlucOrco; 1× Ringer's buffer pH 7.6.

As to `CC/C=C/CCO` [(E)-3-Hexenol], the EC50 (commonly the midpoint of the concentration-response curve) on AlucOR46/Orco [1] is 25.3 µM. This counts as double-digit micromolar.

For `CC1(C)[C@H]2CC=C(CO)[C@@H]1C2` [(1R)-(−)-Myrtenol], it took 74.4 µM to reach a half-maximal effect at AlucOR46/Orco [1] (EC50).

`C=C(C)[C@@H]1CC=C(C)CC1` [(S)-(−)-Limonene]: at AlucOR46/Orco [2], the “inward current response at 10^-4 M” value is on record as “Only six compounds: (S)-(−)-Limonene, (R)-(+)-Limonene”.

In the case of `CCCCCCCO` [1-Heptanol], the concentration for a half-maximal effect (EC50) at AlucOR46/Orco [1] amounted to 13.8 µM.

For `CCC/C=C/C=O` [(E)-2-Hexenal], the concentration for a half-maximal effect (EC50) at AlucOR46/Orco [1] was 37.1 µM. Against the preceding molecule, the EC50 is about 2.7-fold higher.

On to `C=C(C)[C@H]1CC=C(C)CC1` [(R)-(+)-Limonene], for which, on AlucOR46/Orco [2], the “inward current response at 10^-4 M” value is given as “Only six compounds: (S)-(−)-Limonene, (R)-(+)-Limonene”.
